Results on 3 compounds are retold here after patent US20210386877A1, “RADIOTHERAPEUTIC COMBINATION THERAPY FOR THE TREATMENT OF CANCER” (Andarix Pharmaceuticals, Inc., priority 2019, published 2021).

Molecules are shown by their SMILES. *1 amine or outer side, *2 acyl side, *3 side chain or, on linkers, in order; H or OH if unused. Where a SMILES comes first, the peptide text is derived from it. Bridges are numbered along the chain shown (N, C = ends). Roman numbers before positions name the chains, in order. [ ]: non-standard residue; d: D form. ξ: configuration not given here. Phe(4-NH2) = Nc1ccc(C[C@H](N)C(=O)O)cc1; NMehCys = CN[C@@H](CCS)C(=O)O; Thr(3ξ) = CC(O)[C@H](N)C(=O)O; Dap = NC[C@H](N)C(=O)O; X1 = O=C(C[*:1])[*:2]

For series [1] the following is noted: P2045 radiolabeled with radioactive isotopes of rhenium; versus Depreotide; cited from earlier work.
Series [2] deals with SSTR. As to conditions: P2045 radiolabeled with radioactive isotopes of rhenium; versus Depreotide; cited from earlier work.
The conditions of series [3]: intravenously, 1.5 mg/m^2, daily×5, every 21 days; cited from earlier work.
For series [4] the following is noted: cited from earlier work.
For series [5], the system named is SSTR2. In words: SSTR2 expression in small cell cell lines after 24 hours of incubation (FIG. 2, FIG. 3). The series is classed as cell-based. The following applies: H69, H187 and H417 cell lines, 3 and 5 mM valproic acid, versus beta-actin (control). On the procedure: FIG. 3 graphically quantifies the expression of SSTR2 in small cell cell lines after 24 hours of incubation with 3 and 5 mM valproic acid versus the demethylating agent, Decitabine.
FIG. 3 graphically quantifies the expression of SSTR2 […].

On to `CC(O)[C@H](NC(=O)[C@H](CS)NC(=O)[C@H](Cc1ccc(N)cc1)NC(=O)[C@@H](N)CNC(=O)CSCC[C@H]1C(=O)N[C@@H](Cc2ccc(O)cc2)C(=O)N[C@H](Cc2c[nH]c3ccccc23)C(=O)N[C@@H](CCCCN)C(=O)N[C@@H](C(C)O)C(=O)N[C@@H](Cc2ccccc2)C(=O)N1C)C(=O)N[C@@H](CO)C(=O)O` (stereo partly drawn) [P2045, cyclo-[Tyr-(D-Trp)-Lys-Thr-Phe-(N-Me)Hcy]CH2CO-β-Dap-Phe(4-NH2)-Cys-Thr-Ser-OH)]] (I: cyclo(F[NMehCys]Y[dW]K[Thr(3ξ)]) / II: H-[Dap][Phe(4-NH2)]C[Thr(3ξ)]S-OH; linker I:2-II:1 via X1), for which the “kidney and whole body retention” value in series [1] is “lower kidney and whole body retention”. Moreover, the SSTR affinity entry in series [2] was “retains the SSTR affinity of Depreotide”.

In the case of `CC[C@@]1(O)C(=O)OCc2c1cc1n(c2=O)Cc2cc3c(CN(C)C)c(O)ccc3nc2-1` [topotecan], the most common toxicities entry in series [3] was “hematologic (grade 4 neutropenia, thrombocytopenia and grade 3/4 anemia)”.

Consider `CCCC(CCC)C(=O)O` [valproic acid], for which, in series [4], the “solubility in organic solvents” value was “very soluble”. Further, the SSTR2 expression result in series [5] is listed as “upregulation of SSTR2”.
